Laboratory results as given in US20110086848A1, “Agrochemical Compositions Comprising Alkyl Polypropylene Glycol Polyethylene Glycol” (Bayer CropScience AG, priority 2009, published 2011).
Like-named read-outs stand apart in the source and are kept apart here.

Experiment: physchem
Format: physicochemical
Experimental: In the context of the present invention, the term “water-soluble agrochemically active compound” is generally understood as meaning an insecticidally and/or acaricidally active compound (i.e. an active compound that controls insects and/or Acarina) which has (at 20° C.) a solubility of ≧10 mg/l in water. Compounds A and B meet this requirement.

| solubility (at 20° C., stated as meeting the definition of water-soluble, read-out: solubility in water) [µg/mL] | Structure (SMILES) | solubility (20 °C, water) [µg/mL] |
| --- | --- | --- |
|  | O=C1C=C(N(Cc2ccc(Cl)nc2)CC(F)F)CO1 [Compound B] | ≥ 10 |
| ≥ 10 | C/C(=N\C#N)N(Cc1ccc(Cl)nc1)CC(F)F [Compound A] |  |
